Measurements from ChEMBL document CHEMBL5465560, “Selectivity Literature for EUbOPEN Chemogenomic Library” (2024).
Each block holds one compound with its values, some of them ahead of it.

What was measured:
[1] = target: T1, Discoidin domain-containing receptor 2 (Homo sapiens) (UniProt Q16832); conditions: at 10 µM
T1 sequence (whole entry): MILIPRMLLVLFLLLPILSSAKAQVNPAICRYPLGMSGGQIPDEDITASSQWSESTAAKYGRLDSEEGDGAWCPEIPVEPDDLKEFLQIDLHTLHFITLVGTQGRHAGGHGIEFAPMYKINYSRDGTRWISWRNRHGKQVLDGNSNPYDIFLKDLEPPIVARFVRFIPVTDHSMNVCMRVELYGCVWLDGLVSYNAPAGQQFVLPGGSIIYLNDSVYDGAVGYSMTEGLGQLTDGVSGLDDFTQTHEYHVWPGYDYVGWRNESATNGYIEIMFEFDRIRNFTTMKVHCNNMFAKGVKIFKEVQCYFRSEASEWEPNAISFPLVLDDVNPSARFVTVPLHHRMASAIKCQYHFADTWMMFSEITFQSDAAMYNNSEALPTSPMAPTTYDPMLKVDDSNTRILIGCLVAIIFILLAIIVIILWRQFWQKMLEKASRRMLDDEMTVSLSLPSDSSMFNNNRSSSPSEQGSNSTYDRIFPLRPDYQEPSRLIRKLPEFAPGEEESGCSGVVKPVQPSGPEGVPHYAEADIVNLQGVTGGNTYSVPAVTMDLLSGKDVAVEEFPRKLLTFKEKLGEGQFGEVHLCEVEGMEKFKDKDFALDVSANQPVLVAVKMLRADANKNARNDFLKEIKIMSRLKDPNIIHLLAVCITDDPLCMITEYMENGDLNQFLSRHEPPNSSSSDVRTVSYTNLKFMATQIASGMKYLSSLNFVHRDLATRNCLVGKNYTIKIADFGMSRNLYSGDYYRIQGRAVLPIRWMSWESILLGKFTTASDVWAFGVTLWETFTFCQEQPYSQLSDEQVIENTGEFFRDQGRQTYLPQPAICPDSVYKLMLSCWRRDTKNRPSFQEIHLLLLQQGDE

[2] = target: MAP kinase-activated protein kinase 2 (Homo sapiens, UniProt P49137); conditions: at 10 µM
Sequence of MAP kinase-activated protein kinase 2 (P49137 whole entry, looked up): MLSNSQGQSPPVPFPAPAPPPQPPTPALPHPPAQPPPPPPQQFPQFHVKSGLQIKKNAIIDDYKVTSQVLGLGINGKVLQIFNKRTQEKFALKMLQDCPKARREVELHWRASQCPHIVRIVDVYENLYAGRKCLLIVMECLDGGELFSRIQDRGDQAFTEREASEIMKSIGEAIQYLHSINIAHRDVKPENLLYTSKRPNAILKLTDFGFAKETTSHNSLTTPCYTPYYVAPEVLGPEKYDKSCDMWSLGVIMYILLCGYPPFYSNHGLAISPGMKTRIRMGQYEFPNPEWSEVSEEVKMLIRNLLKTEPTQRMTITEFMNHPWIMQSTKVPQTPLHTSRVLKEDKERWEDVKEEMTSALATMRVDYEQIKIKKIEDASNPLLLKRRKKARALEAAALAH

[3] = target: Serine/threonine-protein kinase/endoribonuclease IRE1 (Homo sapiens) (UniProt O75460); test: Selectivity interaction (KinomeScan (DiscoverX)) EUB0000655a ERN1; conditions: at 10 µM
Sequence of Serine/threonine-protein kinase/endoribonuclease IRE1 (Homo sapiens) (O75460 19-977 limits assumed): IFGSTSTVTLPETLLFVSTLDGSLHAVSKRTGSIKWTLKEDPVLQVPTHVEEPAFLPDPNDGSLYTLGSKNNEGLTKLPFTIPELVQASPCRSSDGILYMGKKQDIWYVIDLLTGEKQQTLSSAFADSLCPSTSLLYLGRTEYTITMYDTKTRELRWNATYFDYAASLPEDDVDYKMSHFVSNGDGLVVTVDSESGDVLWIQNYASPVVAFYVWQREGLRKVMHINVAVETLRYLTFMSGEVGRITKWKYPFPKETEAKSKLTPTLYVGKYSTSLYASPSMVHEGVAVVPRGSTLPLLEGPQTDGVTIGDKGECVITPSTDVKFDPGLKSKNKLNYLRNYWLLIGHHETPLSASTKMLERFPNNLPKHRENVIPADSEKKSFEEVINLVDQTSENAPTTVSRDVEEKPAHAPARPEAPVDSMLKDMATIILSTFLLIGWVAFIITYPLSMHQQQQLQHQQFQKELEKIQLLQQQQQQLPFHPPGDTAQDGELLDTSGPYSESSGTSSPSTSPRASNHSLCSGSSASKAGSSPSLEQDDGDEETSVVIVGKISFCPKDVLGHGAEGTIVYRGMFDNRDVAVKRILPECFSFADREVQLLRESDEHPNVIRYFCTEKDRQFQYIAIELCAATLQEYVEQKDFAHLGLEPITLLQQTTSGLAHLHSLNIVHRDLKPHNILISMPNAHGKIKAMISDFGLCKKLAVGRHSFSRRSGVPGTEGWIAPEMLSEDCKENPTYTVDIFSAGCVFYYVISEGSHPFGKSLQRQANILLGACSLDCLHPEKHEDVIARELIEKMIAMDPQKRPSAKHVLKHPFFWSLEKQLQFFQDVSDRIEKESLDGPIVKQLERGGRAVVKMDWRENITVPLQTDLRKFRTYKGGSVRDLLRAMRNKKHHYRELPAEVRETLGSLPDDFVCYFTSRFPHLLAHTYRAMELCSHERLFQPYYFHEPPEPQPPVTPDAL

[4] = target: Tyrosine-protein kinase SYK (Homo sapiens, UniProt P43405); test: Selectivity interaction (ActivX KiNativ screen (ex vivo kinase selectivity in human PBMCs)) EUB0001619a SYK; type: cell-based; conditions: PBMC, at 1 µM
Ephrin type-A receptor 4 = Ephrin type-A receptor 4 (Homo sapiens, UniProt P54764); conditions: at 10 µM
Sequence of Ephrin type-A receptor 4 (P54764 whole entry): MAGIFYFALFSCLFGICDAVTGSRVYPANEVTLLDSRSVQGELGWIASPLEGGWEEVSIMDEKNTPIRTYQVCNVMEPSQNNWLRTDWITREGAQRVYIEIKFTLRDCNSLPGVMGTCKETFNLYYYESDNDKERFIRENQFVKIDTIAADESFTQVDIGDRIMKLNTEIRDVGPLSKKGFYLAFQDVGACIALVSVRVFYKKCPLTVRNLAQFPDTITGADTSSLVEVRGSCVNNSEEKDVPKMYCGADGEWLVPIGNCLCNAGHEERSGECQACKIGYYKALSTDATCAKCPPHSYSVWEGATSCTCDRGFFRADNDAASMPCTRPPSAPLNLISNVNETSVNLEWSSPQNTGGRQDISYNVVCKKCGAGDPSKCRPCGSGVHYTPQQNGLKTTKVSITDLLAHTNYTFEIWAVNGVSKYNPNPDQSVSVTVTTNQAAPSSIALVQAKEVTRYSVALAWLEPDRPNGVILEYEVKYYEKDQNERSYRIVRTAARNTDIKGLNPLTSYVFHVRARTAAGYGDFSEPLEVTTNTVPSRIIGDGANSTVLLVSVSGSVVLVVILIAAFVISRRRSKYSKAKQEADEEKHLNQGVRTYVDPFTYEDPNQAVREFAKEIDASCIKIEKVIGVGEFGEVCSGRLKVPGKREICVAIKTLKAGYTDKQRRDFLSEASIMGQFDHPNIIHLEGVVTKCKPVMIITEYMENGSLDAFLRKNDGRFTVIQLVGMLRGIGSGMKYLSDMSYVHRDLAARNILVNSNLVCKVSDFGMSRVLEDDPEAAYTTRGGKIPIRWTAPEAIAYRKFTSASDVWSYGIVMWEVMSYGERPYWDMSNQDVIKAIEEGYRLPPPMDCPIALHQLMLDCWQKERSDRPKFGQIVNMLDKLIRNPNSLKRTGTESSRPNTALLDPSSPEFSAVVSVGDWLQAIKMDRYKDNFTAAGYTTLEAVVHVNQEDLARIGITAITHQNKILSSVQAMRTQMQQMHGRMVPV

[5] = target: T2, Dual specificity mitogen-activated protein kinase kinase 7 (Homo sapiens) (UniProt O14733); test: Selectivity interaction (ActivX KiNativ screen (kinase selectivity in THP-1 cell lysates)) EUB0000639a MAP2K7; type: subcellular; conditions: lysate
T2 sequence (whole entry): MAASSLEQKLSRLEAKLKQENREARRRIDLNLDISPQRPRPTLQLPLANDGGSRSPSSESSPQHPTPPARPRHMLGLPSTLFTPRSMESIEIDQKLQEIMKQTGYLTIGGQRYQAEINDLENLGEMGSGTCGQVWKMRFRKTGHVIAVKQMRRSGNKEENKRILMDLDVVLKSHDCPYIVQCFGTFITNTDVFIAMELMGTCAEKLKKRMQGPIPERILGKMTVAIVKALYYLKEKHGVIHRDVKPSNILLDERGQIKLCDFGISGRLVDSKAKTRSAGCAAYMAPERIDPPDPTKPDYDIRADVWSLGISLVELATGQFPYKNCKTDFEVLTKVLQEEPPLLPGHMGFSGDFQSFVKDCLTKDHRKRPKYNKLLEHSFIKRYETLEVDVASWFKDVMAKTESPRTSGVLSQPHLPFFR

[6] = target: Casein kinase I isoform epsilon (Homo sapiens, UniProt P49674); test: Selectivity interaction (KinomeScan (DiscoverX)) EUB0000092b CSNK1E; conditions: at 10 µM
Sequence of Casein kinase I isoform epsilon (P49674 whole entry, looked up, canonical isoform): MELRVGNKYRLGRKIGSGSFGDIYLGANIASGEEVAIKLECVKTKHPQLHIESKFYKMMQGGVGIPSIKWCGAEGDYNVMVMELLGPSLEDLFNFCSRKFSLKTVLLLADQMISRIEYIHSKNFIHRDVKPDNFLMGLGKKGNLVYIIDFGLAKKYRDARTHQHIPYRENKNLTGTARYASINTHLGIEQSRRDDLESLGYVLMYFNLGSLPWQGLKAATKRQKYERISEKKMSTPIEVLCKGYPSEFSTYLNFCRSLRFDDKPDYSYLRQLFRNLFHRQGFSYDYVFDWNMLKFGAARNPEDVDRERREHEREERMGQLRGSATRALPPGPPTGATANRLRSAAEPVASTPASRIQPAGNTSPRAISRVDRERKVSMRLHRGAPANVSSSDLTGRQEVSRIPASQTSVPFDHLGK

[7] = target: T3, Inhibitor of nuclear factor kappa-B kinase subunit epsilon (Homo sapiens) (UniProt Q14164); test: Selectivity interaction (Kinase panel (Z-LYTE Assay)) EUB0001632a IKBKE; conditions: at 10 µM
T3 sequence (whole entry): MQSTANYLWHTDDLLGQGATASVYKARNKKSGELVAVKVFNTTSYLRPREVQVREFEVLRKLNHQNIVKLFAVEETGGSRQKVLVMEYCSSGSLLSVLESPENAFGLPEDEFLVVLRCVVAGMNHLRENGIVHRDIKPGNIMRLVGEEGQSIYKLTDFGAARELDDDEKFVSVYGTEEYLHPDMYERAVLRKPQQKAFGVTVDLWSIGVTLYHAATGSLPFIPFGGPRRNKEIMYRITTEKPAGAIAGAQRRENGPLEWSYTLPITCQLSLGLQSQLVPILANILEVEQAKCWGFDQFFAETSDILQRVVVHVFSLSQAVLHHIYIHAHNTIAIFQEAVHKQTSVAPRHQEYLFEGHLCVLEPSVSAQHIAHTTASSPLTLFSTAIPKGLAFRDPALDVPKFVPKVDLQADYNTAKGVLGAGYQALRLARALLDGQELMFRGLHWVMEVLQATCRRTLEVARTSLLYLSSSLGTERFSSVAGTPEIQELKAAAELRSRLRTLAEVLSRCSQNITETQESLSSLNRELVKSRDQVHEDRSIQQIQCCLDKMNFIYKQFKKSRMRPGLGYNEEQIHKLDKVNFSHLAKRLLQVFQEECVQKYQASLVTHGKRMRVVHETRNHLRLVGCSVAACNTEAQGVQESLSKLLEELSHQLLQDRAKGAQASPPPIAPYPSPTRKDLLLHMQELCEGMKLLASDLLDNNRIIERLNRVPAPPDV

% of control [1]: 100% | % of control [2]: 100%
Compound: CCN(CC)CCCCNc1ncc2cc(-c3cc(OC)cc(OC)c3)c(NC(=O)NC(C)(C)C)nc2n1

Compound: CN(C)CCOc1ccc(-c2nc(-c3ccncc3)c(-c3ccc4c(c3)CC/C4=N\O)[nH]2)cc1
% of control [3]: 62%

Compound: N#Cc1cccc(-c2c[nH]c3ncnc(N4CCOCC4)c23)c1
% of inhibition [4]: 1%

Compound: Cc1cc([C@@H](C)Nc2ccccc2C(=O)O)c2nc(N3CCOCC3)cc(=O)n2c1 [AZD-6482]
% of control (Ephrin type-A receptor 4): 93%

% of inhibition ([5]; at 0.01 µM): 7.8% | % of inhibition ([5]; at 0.04 µM): 0.6% | % of inhibition ([5]; at 0.2 µM): 2.5% | % of inhibition ([5]; at 1 µM): 2.2% | % of inhibition ([5]; at 5 µM): -7.1%
Compound: CC[C@@H]1[C@H](F)C(=O)N[C@@H]1COc1nccc2cc(C(N)=O)c(OC)cc12 [ZIMLOVISERTIB]

Compound: CCC(=O)N1CCN(c2ccc(-n3c(=O)ccc4cnc5ccc(-c6cnc7ccccc7c6)cc5c43)cc2C(F)(F)F)CC1
% of control [6]: 59%

% of control [7]: 2.49%
Compound: Cn1cc(-n2cnc3c(NCc4nc5cc(Cl)c(Cl)cc5[nH]4)nc(N4CCOCC4)nc32)cn1
